Source: patent publication US20120252741A1, “NOVEL SEMI-SYNTHETIC GLYCOPEPTIDES AS ANTIBACTERIAL AGENTS” (priority 2008, published 2012)
≈ marks a conversion by molar mass, not a printed value.

Tests used:
Assay type in all cases: cell-based
[1] = test system: Staphylococcus epidermidis 835; experiment: MIC, broth microdilution, SE 835; conditions: Staphylococcus epidermidis, 835; Table 1; class symbols; read-out: MIC SE 835
Method: (§1) Antibacterial activity in vitro is investigated by broth microdilution method in Meuller-Hinton broth as recommended by NCCLS. All strains tested are clinical isolates either sensitive or resistant to natural glycopeptides. MIC values were determined using the CLSI-recommended broth microdilution procedure (Clinical and Laboratory Standards Institute, Methods for Dilution Antimicrobial Susceptibility Tests for Bacteria That Grow Aerobically; Approved Standard-Seventh Edition.). Automated liquid handlers (Multidrop 384, Labsystems, Helsinki, Finland; Biomek 2000 and Multimek 96, Beckman Coulter, Fullerton Calif.) were used to conduct serial dilutions and liquid transfers. The MIC value for vancomycin is given for comparison. The abbreviations for organisms tested are as follow: SA 100—Staphylococcus aureus 100 (ATCC 29213); SA 757—Staphylococcus aureus 757 (MRSA); SA 2012—Staphylococcus aureus 2012 (VISA); SE 835—Staphylococcus epidermidis 835; SE 831—Staphylococcus epidermidis 831 (MRSE); EFc 101—Enterococcus faecalis 101 (ATCC 29212); EFc 848—Enterococcus faecalis 848 (VRE, Van A); EFcm 800—Enterococcus faecium 800; EFcm 752—Enterococcus faecium 752 (VRE, Van A); SPNE 1195—Streptococcus pneumoniae 1195 (ATCC 49619); SPY 712—Streptococcus pyogenes 712.

[2] = test system: Enterococcus faecium 752 (VRE, Van A); experiment: MIC, broth microdilution, EFcm 752; conditions: Table 1; VRE, Van A; class symbols; read-out: MIC E FCM 752
Method: as §1

[3] = test system: Staphylococcus epidermidis 831 (MRSE); experiment: MIC, broth microdilution, SE 831; conditions: Staphylococcus epidermidis, Table 1, class symbols, read-out: MIC SE 831
Method: as §1

[4] = test system: Staphylococcus aureus 100 (ATCC 29213); experiment: MIC, broth microdilution, SA 100; conditions: Staphylococcus aureus, ATCC29213; Table 1; class symbols; read-out: MIC SA 100
Method: as §1

[5] = test system: Streptococcus pneumoniae 1195 (ATCC 49619); experiment: MIC, broth microdilution, SPNE 1195; conditions: Streptococcus pneumoniae, ATCC49619; Table 1; class symbols; read-out: MIC S PNE 1195
Method: as §1

[6] = test system: Staphylococcus aureus 757 (MRSA); experiment: MIC, broth microdilution, SA 757; conditions: Table 1, class symbols, read-out: MIC SA 757
Method: as §1

[7] = test system: Enterococcus faecalis 101 (ATCC 29212); experiment: MIC, broth microdilution, EFc 101; conditions: Enterococcus faecalis, ATCC29212; Table 1; class symbols; read-out: MIC E FC 101
Method: as §1

[8] = test system: Enterococcus faecalis 848 (VRE, Van A); experiment: MIC, broth microdilution, EFc 848; conditions: Table 1; VRE, Van A; class symbols; read-out: MIC E FC 848
Method: as §1

[9] = test system: Streptococcus pyogenes 712; experiment: MIC, broth microdilution, SPY 712; conditions: Streptococcus pyogenes, 712; Table 1; class symbols; read-out: MIC S PYO 712
Method: as §1

Enterococcus faecium 800 = experiment: MIC, broth microdilution, EFcm 800; conditions: Enterococcus faecium, 800; Table 1; class symbols; read-out: MIC E FCM 800
Method: as §1

[10] = test system: Staphylococcus aureus 2012 (VISA); experiment: MIC, broth microdilution, SA 2012; conditions: Table 1, class symbols, read-out: MIC SA 2012
Method: as §1

SMILES	MIC [1]	MIC [2]	MIC [3]	MIC [4]	MIC [5]	MIC [6]	MIC [7]	MIC [8]	MIC [9]	MIC (Enterococcus faecium 800)	MIC [10]
CN[C@H](CC(C)C)C(=O)N[C@H]1C(=O)N[C@@H](CC(=O)NS(=O)(=O)c2ccc(OCCOC)cc2)C(=O)N[C@H]2C(=O)N[C@H]3C(=O)N[C@H](C(=O)N[C@H](C(=O)NC4C5CC6CC(C5)CC4C6)c4cc(O)cc(O)c4-c4cc3ccc4O)[C@H](O)c3ccc(c(Cl)c3)Oc3cc2cc(c3O[C@@H]2O[C@H](CN)[C@@H](O)[C@H](O)[C@H]2O)Oc2ccc(cc2Cl)[C@H]1O (stereo partly shown) [Compound 101]	0.01 to 0.5 µg/mL (≈ 0.00605 to 0.303 µM)	0.01 to 0.5 µg/mL (≈ 0.00605 to 0.303 µM)	0.01 to 0.5 µg/mL (≈ 0.00605 to 0.303 µM)	0.01 to 0.5 µg/mL (≈ 0.00605 to 0.303 µM)	0.01 to 0.5 µg/mL (≈ 0.00605 to 0.303 µM)	0.01 to 0.5 µg/mL (≈ 0.00605 to 0.303 µM)	0.01 to 0.5 µg/mL (≈ 0.00605 to 0.303 µM)	1 to 2 µg/mL (≈ 0.605 to 1.21 µM)	0.01 to 0.5 µg/mL (≈ 0.00605 to 0.303 µM)	0.01 to 0.5 µg/mL (≈ 0.00605 to 0.303 µM)	0.01 to 0.5 µg/mL (≈ 0.00605 to 0.303 µM)
CN[C@H](CC(C)C)C(=O)N[C@H]1C(=O)N[C@@H](CC(=O)NS(=O)(=O)c2ccc(OCCOCCOC)cc2)C(=O)N[C@H]2C(=O)N[C@H]3C(=O)N[C@H](C(=O)N[C@H](C(=O)NC4C5CC6CC(C5)CC4C6)c4cc(O)cc(O)c4-c4cc3ccc4O)[C@H](O)c3ccc(c(Cl)c3)Oc3cc2cc(c3O[C@@H]2O[C@H](CN)[C@@H](O)[C@H](O)[C@H]2O)Oc2ccc(cc2Cl)[C@H]1O (stereo partly shown) [Compound 102]	0.01 to 0.5 µg/mL (≈ 0.00589 to 0.295 µM)	0.5 to 1 µg/mL (≈ 0.295 to 0.589 µM)	0.01 to 0.5 µg/mL (≈ 0.00589 to 0.295 µM)	0.01 to 0.5 µg/mL (≈ 0.00589 to 0.295 µM)	0.01 to 0.5 µg/mL (≈ 0.00589 to 0.295 µM)	0.01 to 0.5 µg/mL (≈ 0.00589 to 0.295 µM)	0.01 to 0.5 µg/mL (≈ 0.00589 to 0.295 µM)	2 to 4 µg/mL (≈ 1.18 to 2.36 µM)	0.01 to 0.5 µg/mL (≈ 0.00589 to 0.295 µM)	0.01 to 0.5 µg/mL (≈ 0.00589 to 0.295 µM)	0.5 to 1 µg/mL (≈ 0.295 to 0.589 µM)
CCOCCOCCOc1ccc(S(=O)(=O)NC(=O)C[C@@H]2NC(=O)[C@H](NC(=O)[C@@H](CC(C)C)NC)[C@H](O)c3ccc(c(Cl)c3)Oc3cc4cc(c3O[C@@H]3O[C@H](CN)[C@@H](O)[C@H](O)[C@H]3O)Oc3ccc(cc3Cl)[C@@H](O)[C@@H]3NC(=O)[C@H](NC(=O)[C@@H]4NC2=O)c2ccc(O)c(c2)-c2c(O)cc(O)cc2[C@@H](C(=O)NC2C4CC5CC(C4)CC2C5)NC3=O)cc1 (stereo partly shown) [Compound 103]	0.01 to 0.5 µg/mL (≈ 0.00585 to 0.292 µM)	1 to 2 µg/mL (≈ 0.585 to 1.17 µM)	0.01 to 0.5 µg/mL (≈ 0.00585 to 0.292 µM)	0.5 to 1 µg/mL (≈ 0.292 to 0.585 µM)	0.5 to 1 µg/mL (≈ 0.292 to 0.585 µM)	0.01 to 0.5 µg/mL (≈ 0.00585 to 0.292 µM)	0.01 to 0.5 µg/mL (≈ 0.00585 to 0.292 µM)	2 to 4 µg/mL (≈ 1.17 to 2.34 µM)	0.01 to 0.5 µg/mL (≈ 0.00585 to 0.292 µM)	0.01 to 0.5 µg/mL (≈ 0.00585 to 0.292 µM)	1 to 2 µg/mL (≈ 0.585 to 1.17 µM)

More lines, now with the values ahead:

MIC [1]	MIC [2]	MIC [3]	MIC [4]	MIC [5]	MIC [6]	MIC [7]	MIC [8]	MIC [9]	MIC (Enterococcus faecium 800)	MIC [10]	SMILES
0.01 to 0.5 µg/mL (≈ 0.00605 to 0.303 µM)	1 to 2 µg/mL (≈ 0.605 to 1.21 µM)	0.01 to 0.5 µg/mL (≈ 0.00605 to 0.303 µM)	0.01 to 0.5 µg/mL (≈ 0.00605 to 0.303 µM)	0.01 to 0.5 µg/mL (≈ 0.00605 to 0.303 µM)	0.01 to 0.5 µg/mL (≈ 0.00605 to 0.303 µM)	0.01 to 0.5 µg/mL (≈ 0.00605 to 0.303 µM)	2 to 4 µg/mL (≈ 1.21 to 2.42 µM)	0.01 to 0.5 µg/mL (≈ 0.00605 to 0.303 µM)	0.01 to 0.5 µg/mL (≈ 0.00605 to 0.303 µM)	2 to 4 µg/mL (≈ 1.21 to 2.42 µM)	CCCCOc1ccc(S(=O)(=O)NC(=O)C[C@@H]2NC(=O)[C@H](NC(=O)[C@@H](CC(C)C)NC)[C@H](O)c3ccc(c(Cl)c3)Oc3cc4cc(c3O[C@@H]3O[C@H](CO)[C@@H](O)[C@H](O)[C@H]3O)Oc3ccc(cc3Cl)[C@@H](O)[C@@H]3NC(=O)[C@H](NC(=O)[C@@H]4NC2=O)c2ccc(O)c(c2)-c2c(O)cc(O)cc2[C@@H](C(=O)NC2C4CC5CC(C4)CC2C5)NC3=O)cc1 (stereo partly shown) [Compound 117]
1 to 2 µg/mL (≈ 0.595 to 1.19 µM)	1 to 2 µg/mL (≈ 0.595 to 1.19 µM)	1 to 2 µg/mL (≈ 0.595 to 1.19 µM)	2 to 4 µg/mL (≈ 1.19 to 2.38 µM)	0.01 to 0.5 µg/mL (≈ 0.00595 to 0.298 µM)	1 to 2 µg/mL (≈ 0.595 to 1.19 µM)	0.5 to 1 µg/mL (≈ 0.298 to 0.595 µM)	2 to 4 µg/mL (≈ 1.19 to 2.38 µM)	0.01 to 0.5 µg/mL (≈ 0.00595 to 0.298 µM)	0.01 to 0.5 µg/mL (≈ 0.00595 to 0.298 µM)	> 16 µg/mL	CCCCCCOc1ccc(S(=O)(=O)NC(=O)C[C@@H]2NC(=O)[C@H](NC(=O)[C@@H](CC(C)C)NC)[C@H](O)c3ccc(c(Cl)c3)Oc3cc4cc(c3O[C@@H]3O[C@H](CO)[C@@H](O)[C@H](O)[C@H]3O)Oc3ccc(cc3Cl)[C@@H](O)[C@@H]3NC(=O)[C@H](NC(=O)[C@@H]4NC2=O)c2ccc(O)c(c2)-c2c(O)cc(O)cc2[C@@H](C(=O)NC2C4CC5CC(C4)CC2C5)NC3=O)cc1 (stereo partly shown) [Compound 118]
